Reference: patent US9056855B2, “Metalloenzyme inhibitor compounds” (Viamet Pharmaceuticals, Inc., priority 2010, dated 2015)

How the values were obtained:
CYP17 = target: T1, CYP17 (Rattus norvegicus, UniProt P11715); assay: Inhibition of CYP17 (rat testicular microsomes); format: biochemical; details: pooled rat testicular microsomes
T1 construct: from tissue; host or cells: rat testis (pooled microsomes)
T1 sequence (P11715 1-507): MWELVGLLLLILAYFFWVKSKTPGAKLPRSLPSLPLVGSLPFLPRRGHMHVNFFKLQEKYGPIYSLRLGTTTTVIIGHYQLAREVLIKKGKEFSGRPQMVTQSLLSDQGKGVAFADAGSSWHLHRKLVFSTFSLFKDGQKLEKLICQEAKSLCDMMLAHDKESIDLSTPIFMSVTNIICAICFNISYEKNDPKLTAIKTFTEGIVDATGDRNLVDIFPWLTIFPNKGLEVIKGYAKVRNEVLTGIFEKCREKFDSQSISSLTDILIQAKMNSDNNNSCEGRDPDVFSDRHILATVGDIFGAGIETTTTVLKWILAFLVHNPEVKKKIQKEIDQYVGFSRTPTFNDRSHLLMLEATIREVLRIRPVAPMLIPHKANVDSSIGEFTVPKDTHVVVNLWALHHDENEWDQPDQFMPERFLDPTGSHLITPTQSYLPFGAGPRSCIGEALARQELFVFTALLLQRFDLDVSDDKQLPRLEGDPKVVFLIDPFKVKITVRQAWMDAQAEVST
Procedure: CYP17 activity was assayed according to the following procedure. […] The individual test compound and isozyme inhibitor solutions were then diluted 20-fold with deionized water (50:950 v/v) to concentrations of 135, 27, 4.5, 0.9, 0.15, 0.03 and 0.005 μM. […] For active controls, blank test compound diluent was added in place of test compound solution.

CYP2C19 = CYP2C19 (Homo sapiens, UniProt P33261); assay: Inhibition of liver cytochrome P450 enzymes, CYP2C19 (human liver microsomes)
Procedure: (§1) A. Inhibition of Liver Cytochrome P450 Enzymes
(§2) Solutions of each test compound were separately prepared at concentrations of 20000, 6000, 2000, 600, 200, and 60 μM by serial dilution with DMSO:MeCN (50:50 v/v). The individual test compound solutions were then diluted 20-fold with DMSO:MeCN:deionized water (5:5:180 v/v/v) to concentrations of 1000, 300, 100, 30, 10, and 3 μM. […] The mixed inhibitor solutions were then diluted 20-fold with DMSO:MeCN:deionized water (5:5:180 v/v/v) to concentrations of 300, 100, 30, 10, 3, 1, 0.3, and 0.1 μM. The percent of organic solvent attributable to the test compound or inhibitor mixture in the final reaction mixture was 2% v/v.
(§3) Pooled human liver microsome suspension (20 mg/mL) was diluted with phosphate buffer to obtain a 5 mg/mL suspension. A solution of NADPH was prepared in phosphate buffer at a concentration of 5 mM. Separate stock solutions of each substrate were prepared in DMSO:MeCN (50:50 v/v), mixed, and diluted in phosphate buffer to obtain a single solution containing each substrate at five times its experimentally determined Km concentration. The percent of organic solvent attributable to substrate mixture in the final reaction mixture was 1% v/v.
(§4) Substrate solution and microsome suspension were combined in a 1:1 volume ratio, mixed, and distributed to reaction wells of a PCR plate. Individual test compound or combined inhibitor solutions at each concentration were added to the wells and mixed by repetitive aspirate-dispense cycles. […] Reaction mixtures were allowed to equilibrate at 37° C. for approximately two minutes before adding NADPH solution to initiate reaction, followed by pipette mixing of reaction mixture. Ten minutes after addition of NADPH, the reaction mixtures were quenched with cold acetonitrile. […] A portion of the supernatant was analyzed by gradient reverse-phase HPLC with detection by electrospray ionization triple quadrupole mass spectrometry in the positive ion mode.
(§5) Data was fitted to sigmoid dose-response curves and the inhibitory potency of each test compound was determined as its IC50 value.

CYP3A4 = CYP3A4 (Homo sapiens, UniProt P08684); assay: Inhibition of liver cytochrome P450 enzymes, CYP3A4 (human liver microsomes)
Procedure: as §1, §2, §3, §4, §5

CYP2C9 = CYP2C9 (Homo sapiens, UniProt P11712); assay: Inhibition of liver cytochrome P450 enzymes, CYP2C9 (human liver microsomes)
Procedure: as §1, §2, §3, §4, §5

Sequence of CYP2C19 (P33261 whole entry): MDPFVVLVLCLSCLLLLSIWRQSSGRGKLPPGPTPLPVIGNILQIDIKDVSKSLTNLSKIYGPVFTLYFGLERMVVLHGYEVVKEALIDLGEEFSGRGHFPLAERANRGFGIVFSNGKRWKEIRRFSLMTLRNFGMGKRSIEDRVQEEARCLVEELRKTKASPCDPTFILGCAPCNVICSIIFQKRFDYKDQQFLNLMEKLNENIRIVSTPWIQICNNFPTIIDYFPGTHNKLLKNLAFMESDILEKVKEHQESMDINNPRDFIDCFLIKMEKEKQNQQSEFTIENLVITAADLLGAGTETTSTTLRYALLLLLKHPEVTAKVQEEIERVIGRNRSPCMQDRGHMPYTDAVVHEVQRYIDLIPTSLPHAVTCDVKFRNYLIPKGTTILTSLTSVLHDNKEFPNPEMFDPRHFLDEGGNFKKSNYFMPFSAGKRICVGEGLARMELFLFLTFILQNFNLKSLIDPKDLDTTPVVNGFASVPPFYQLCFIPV
Sequence of CYP2C9 (P11712 whole entry): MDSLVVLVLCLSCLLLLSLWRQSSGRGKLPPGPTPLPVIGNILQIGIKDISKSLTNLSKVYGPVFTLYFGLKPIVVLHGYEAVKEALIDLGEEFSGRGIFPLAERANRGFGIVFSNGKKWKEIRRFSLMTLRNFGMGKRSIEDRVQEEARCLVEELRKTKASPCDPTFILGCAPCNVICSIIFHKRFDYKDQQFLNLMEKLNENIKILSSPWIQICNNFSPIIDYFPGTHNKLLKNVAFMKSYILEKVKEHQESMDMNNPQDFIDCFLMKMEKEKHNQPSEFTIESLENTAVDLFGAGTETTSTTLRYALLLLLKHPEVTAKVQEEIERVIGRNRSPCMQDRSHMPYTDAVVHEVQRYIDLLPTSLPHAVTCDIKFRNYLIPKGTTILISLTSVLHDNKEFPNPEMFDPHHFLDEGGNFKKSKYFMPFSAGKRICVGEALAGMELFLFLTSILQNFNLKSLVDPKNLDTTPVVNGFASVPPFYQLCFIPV
Sequence of CYP3A4 (P08684 whole entry): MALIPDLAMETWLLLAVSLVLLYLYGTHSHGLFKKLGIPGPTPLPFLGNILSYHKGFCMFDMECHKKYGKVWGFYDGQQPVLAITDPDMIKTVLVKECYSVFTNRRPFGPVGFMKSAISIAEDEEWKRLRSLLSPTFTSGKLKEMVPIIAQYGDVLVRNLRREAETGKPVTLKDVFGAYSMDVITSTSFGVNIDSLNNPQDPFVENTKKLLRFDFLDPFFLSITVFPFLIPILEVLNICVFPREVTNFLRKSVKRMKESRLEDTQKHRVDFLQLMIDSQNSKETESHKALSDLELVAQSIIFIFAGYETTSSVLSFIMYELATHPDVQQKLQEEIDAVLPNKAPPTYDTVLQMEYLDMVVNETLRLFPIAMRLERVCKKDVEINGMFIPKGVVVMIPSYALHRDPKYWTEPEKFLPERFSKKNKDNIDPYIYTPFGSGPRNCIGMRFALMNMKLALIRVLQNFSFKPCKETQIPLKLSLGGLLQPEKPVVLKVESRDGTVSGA

IC50 (CYP17)	IC50 (CYP2C19)	IC50 (CYP3A4)	IC50 (CYP2C9)	SMILES
5760 nM				CC(C)C(O)(c1ccncn1)c1ccc2c(C(F)(F)F)c(-c3cccs3)ccc2n1 (centres unmarked) [Example 4, 2-methyl-1-(pyrimidin-4-yl)-1-(6-(thiophen-2-yl)-5-(trifluoromethyl)quinolin-2-yl)propan-1-ol]
980 nM				CC(C)C(O)(c1ccncn1)c1ccc2cc(OC(F)(F)F)ccc2n1 (centres unmarked) [Example 6, 2-methyl-1-(pyrimidin-4-yl)-1-(6-(trifluoromethoxy)quinolin-2-yl)propan-1-ol]
1000 nM				CC(C)C(O)(c1ccncn1)c1ccc2c(-c3cccs3)c(OC(F)F)ccc2n1 (centres unmarked) [Example 8, 1-(6-(difluoromethoxy)-5-(thiophen-2-yl)quinolin-2-yl)-2-methyl-1-(pyrimidin-4-yl)propan-1-ol]
80 nM	8.7 µM	30 µM	3.5 µM	CC(C)C(O)(c1ccncn1)c1ccc2cc(OC(F)F)ccc2n1 (centres unmarked) [Example 3, 1-(6-(Difluoromethoxy)quinolin-2-yl)-2-methyl-1-(pyrimidin-4-yl)propan-1-ol]
120 nM	5.1 µM	19 µM	3.3 µM	CSc1ccc2nc(C(O)(c3ccncn3)C(C)C)ccc2c1 (centres unmarked) [Example 2, 2-Methyl-1-(6-(methylthio)quinolin-2-yl)-1-(pyrimidin-4-yl)propan-1-ol]
600 nM				CC(C)C(O)(c1ccncn1)c1ccc2c(C(F)(F)F)c(OC(F)F)ccc2n1 (centres unmarked) [Example 7, 1-(6-(difluoromethoxy)-5-(trifluoromethyl)quinolin-2-yl)-2-methyl-1-(pyrimidin-4-yl)propan-1-ol]
440 nM	8.5 µM	18 µM	7.8 µM	COc1cc2ccc(C(O)(c3ccncn3)C(C)C)cc2cc1OC (centres unmarked) [Example 1, 1-(6,7-dimethoxynaphthalen-2-yl)-2-methyl-1-(pyrimidin-4-yl)propan-1-ol]
1750 nM				CC(C)C(O)(c1ccncn1)c1ccc2c(C(F)(F)F)c(Cl)ccc2n1 (centres unmarked) [Example 5, 1-(6-chloro-5-(trifluoromethyl)quinolin-2-yl)-2-methyl-1-(pyrimidin-4-yl)propan-1-ol]
